Test results published in patent US7479506B2, “Agent or method for treating severe aphasia in cerebrovascular accident chronic stage” (priority 2003, dated 2009).

Columns and labels:
Acute toxicity = details: in vivo
Text: Acute toxicity of the compound represented by formula (I) was examined and it has been confirmed that this is a compound having high safety.

[1] = system: aphasia after cerebrovascular accidents; details: acute phase after cerebrovascular accidents, combination use of speech therapy; cited from earlier work
[2] = 60 g/day for gait disturbance of cerebellar degeneration; Movement Disorder, 2003, 18, pp. 457-459; cited from earlier work

SMILES: NC(=O)CN1CCCC1=O [piracetam, 2-oxo-1-pyrrolidineacetamide]
- acute toxicity (Acute toxicity): high safety
- therapeutic effect on aphasia [1]: therapeutic effect of piracetam is found
- safety [2]: no problem on its safety
